Experimental data from patent US9593149B2, “Amylin and calcitonin receptor agonist” (Novo Nordisk A/S, priority 2014, dated 2017).
Values after ≈ are worked out from the molar mass of the structure shown. Numbered stars: 1 amine (or outer) side, 2 acyl side, 3 side chain; on linkers, the order of the positions; unused ones are H or OH. Peptide text beside a SMILES is read from it. * marks the point of attachment. C20 diacid = O=C(O)CCCCCCCCCCCCCCCCCCC(=O)*; C18 diacid = O=C(O)CCCCCCCCCCCCCCCCC(=O)*; γGlu = O=C(O)[C@H](CCC(=O)[*:2])N[*:1]

Test: Assay (IV) determination of solubility
Assay type: physicochemical
Protocol: Assay (IV)—Determination of Solubility
The mimylin peptide was dissolved in water at ˜500 nmol/ml and mixed 1:1 with a series of buffers (100 mM glycylglycine pH 3.0, 100 mM glycylglycine pH 4.0, 100 mM glycylglycine pH 5.0, 100 mM bistrispropane pH 6.0, 100 mM bistrispropane pH 6.5, 100 mM bistrispropane pH 7.0, 100 mM bistrispropane pH 7.5, 100 mM bistrispropane pH 8.0).

| SMILES | Solubility (pH 3.0) | Solubility (pH 4.0) | Solubility (pH 5.0) | Solubility (pH 6.0) | Solubility (pH 6.5) | Solubility (pH 7.0) | Solubility (pH 7.5) | Solubility (pH 8.0) | solubility at 18 h (pH 5.0) | solubility at 18 h (pH 4.0) |
| --- | --- | --- | --- | --- | --- | --- | --- | --- | --- | --- |
| CC(C)C[C@H](NC(=O)[C@H](C)NC(=O)[C@H](C)NC(=O)[C@@H](NC(=O)[C@H](CO)NC(=O)[C@H](CC(C)C)NC(=O)[C@H](CCC(=O)O)NC(=O)[C@H](CO)NC(=O)[C@H](C)NC(=O)CC[C@H](NC(=O)CCCCCCCCCCCCCCCCCCC(=O)O)C(=O)O)[C@@H](C)O)C(=O)NCC(=O)N[C@@H](CCCNC(=N)N)C(=O)N[C@@H](CC(C)C)C(=O)N[C@@H](CO)C(=O)N[C@@H](C)C(=O)N[C@@H](CCC(=O)O)C(=O)N[C@@H](CC(C)C)C(=O)N[C@@H](Cc1cnc[nH]1)C(=O)N[C@@H](CCC(=O)O)C(=O)N[C@@H](CC(C)C)C(=O)N[C@@H](C)C(=O)N[C@H](C(=O)N[C@@H](CC(C)C)C(=O)N1CCC[C@H]1C(=O)N[C@@H](Cc1cnc[nH]1)C(=O)N[C@H](C(=O)N[C@@H](CCC(=O)O)C(=O)N[C@H](C(=O)NCC(=O)N[C@@H](CO)C(=O)NCC(=O)N[C@@H](CO)C(=O)N1CCC[C@H]1C(N)=O)[C@@H](C)O)[C@@H](C)O)[C@@H](C)O [compound 73, [N-terminal(C20 diacid-gGlu), des1, 25H, 30S, 31G]mimylin] ({C20 diacid-γGlu}-ASELSTAALGRLSAELHELATLPHTETGSGSP-NH2) | ≧200 μM | ≧200 μM | ≧200 μM | ≧200 μM | ≧200 μM | ≧200 μM | ≧200 μM | ≧200 μM |  |  |
| CC(C)C[C@H](NC(=O)CNC(=O)[C@H](CO)NC(=O)[C@H](C)NC(=O)CC[C@H](NC(=O)CCCCCCCCCCCCCCCCCCC(=O)O)C(=O)O)C(=O)N[C@@H](CO)C(=O)N[C@H](C(=O)N[C@@H](C)C(=O)N[C@@H](C)C(=O)N[C@@H](CC(C)C)C(=O)NCC(=O)N[C@@H](CCCNC(=N)N)C(=O)N[C@@H](CC(C)C)C(=O)N[C@@H](CO)C(=O)N[C@@H](CCC(N)=O)C(=O)N[C@@H](CCC(=O)O)C(=O)N[C@@H](CC(C)C)C(=O)N[C@@H](Cc1cnc[nH]1)C(=O)N[C@@H](CCC(=O)O)C(=O)N[C@@H](CC(C)C)C(=O)N[C@@H](CCC(N)=O)C(=O)N[C@H](C(=O)N[C@@H](Cc1ccc(O)cc1)C(=O)N1CCC[C@H]1C(=O)N[C@@H](Cc1cnc[nH]1)C(=O)N[C@H](C(=O)N[C@@H](CCC(=O)O)C(=O)N[C@H](C(=O)NCC(=O)N[C@@H](CO)C(=O)NCC(=O)N[C@H](C(=O)N[C@@H](Cc1ccc(O)cc1)C(N)=O)[C@@H](C)O)[C@@H](C)O)[C@@H](C)O)[C@@H](C)O)[C@@H](C)O [compound 117, [N-terminal(C20 diacid-gGlu), des1, 4G, 15Q, 21Q, 23Y, 25H, 30S, 31G, 32T, 33Y]mimylin] ({C20 diacid-γGlu}-ASGLSTAALGRLSQELHELQTYPHTETGSGTY-NH2) | ≧200 μM | ≧200 μM |  | ≧200 μM | ≧200 μM | ≧200 μM | ≧200 μM | ≧200 μM | 38 µM (≈ 146 µg/mL) |  |
| CC(C)C[C@H](NC(=O)[C@H](C)NC(=O)[C@H](C)NC(=O)[C@@H](NC(=O)[C@H](CO)NC(=O)[C@H](CC(C)C)NC(=O)[C@H](CCC(=O)O)NC(=O)[C@H](CO)NC(=O)[C@H](C)NC(=O)CC[C@H](NC(=O)CCCCCCCCCCCCCCCCCCC(=O)O)C(=O)O)[C@@H](C)O)C(=O)NCC(=O)N[C@@H](CCCNC(=N)N)C(=O)N[C@@H](CC(C)C)C(=O)N[C@@H](CO)C(=O)N[C@@H](C)C(=O)N[C@@H](CCC(=O)O)C(=O)N[C@@H](CC(C)C)C(=O)N[C@@H](Cc1cnc[nH]1)C(=O)N[C@@H](CCC(=O)O)C(=O)N[C@@H](CC(C)C)C(=O)N[C@@H](CO)C(=O)N[C@H](C(=O)N[C@@H](Cc1ccc(O)cc1)C(=O)N1CCC[C@H]1C(=O)N[C@@H](CCCNC(=N)N)C(=O)N[C@H](C(=O)N[C@@H](CCC(=O)O)C(=O)N[C@H](C(=O)NCC(=O)N[C@@H](CO)C(=O)NCC(=O)N[C@@H](CO)C(=O)N[C@@H](Cc1ccc(O)cc1)C(N)=O)[C@@H](C)O)[C@@H](C)O)[C@@H](C)O [compound 97, [N-terminal(C20 diacid-gGlu), des1, 21S, 23Y, 30S, 31G, 33Y]mimylin] ({C20 diacid-γGlu}-ASELSTAALGRLSAELHELSTYPRTETGSGSY-NH2) | ≧200 μM | ≧200 μM |  | ≧200 μM | ≧200 μM | ≧200 μM | ≧200 μM | ≧200 μM | 40 µM (≈ 152 µg/mL) |  |
| CC(C)C[C@H](NC(=O)[C@H](CO)NC(=O)[C@H](C)NC(=O)[C@@H](NC(=O)[C@H](CO)NC(=O)[C@H](CC(C)C)NC(=O)[C@H](CCC(=O)O)NC(=O)[C@H](CO)NC(=O)[C@H](C)NC(=O)CC[C@H](NC(=O)CCCCCCCCCCCCCCCCCCC(=O)O)C(=O)O)[C@@H](C)O)C(=O)NCC(=O)N[C@@H](CCCNC(=N)N)C(=O)N[C@@H](CC(C)C)C(=O)N[C@@H](CO)C(=O)N[C@@H](C)C(=O)N[C@@H](CCC(=O)O)C(=O)N[C@@H](CC(C)C)C(=O)N[C@@H](Cc1cnc[nH]1)C(=O)N[C@@H](CCC(=O)O)C(=O)N[C@@H](CC(C)C)C(=O)N[C@@H](C)C(=O)N[C@H](C(=O)N[C@@H](Cc1ccc(O)cc1)C(=O)N1CCC[C@H]1C(=O)N[C@@H](CCCNC(=N)N)C(=O)N[C@H](C(=O)N[C@@H](CCC(=O)O)C(=O)N[C@H](C(=O)NCC(=O)N[C@@H](CO)C(=O)NCC(=O)N[C@@H](CO)C(=O)N[C@@H](Cc1ccc(O)cc1)C(N)=O)[C@@H](C)O)[C@@H](C)O)[C@@H](C)O [compound 91, [N-terminal(C20 diacid-gGlu), des1, 9S, 23Y, 30S, 31G, 33Y]mimylin] ({C20 diacid-γGlu}-ASELSTASLGRLSAELHELATYPRTETGSGSY-NH2) | ≧200 μM |  |  | ≧200 μM | ≧200 μM | ≧200 μM | ≧200 μM | ≧200 μM | 29 µM (≈ 110 µg/mL) | 7 µM (≈ 26.7 µg/mL) |
| CC(C)C[C@H](NC(=O)[C@H](C)NC(=O)[C@H](C)NC(=O)[C@@H](NC(=O)[C@H](CO)NC(=O)[C@H](CC(C)C)NC(=O)[C@H](CCC(=O)O)NC(=O)[C@H](CO)NC(=O)[C@H](C)N)[C@@H](C)O)C(=O)NCC(=O)N[C@@H](CCCNC(=N)N)C(=O)N[C@@H](CC(C)C)C(=O)N[C@@H](CO)C(=O)N[C@@H](C)C(=O)N[C@@H](CCC(=O)O)C(=O)N[C@@H](CC(C)C)C(=O)N[C@@H](Cc1cnc[nH]1)C(=O)N[C@@H](CCC(=O)O)C(=O)N[C@@H](CC(C)C)C(=O)N[C@@H](C)C(=O)N[C@H](C(=O)N[C@@H](CC(C)C)C(=O)N1CCC[C@H]1C(=O)N[C@@H](CCCNC(=N)N)C(=O)N[C@H](C(=O)N[C@@H](CCCCNC(=O)CC[C@H](NC(=O)CCCCCCCCCCCCCCCCCCC(=O)O)C(=O)O)C(=O)N[C@H](C(=O)NCC(=O)N[C@@H](CO)C(=O)NCC(=O)N[C@@H](CO)C(=O)N1CCC[C@H]1C(N)=O)[C@@H](C)O)[C@@H](C)O)[C@@H](C)O [compound 55, [des1, 27K(C20 diacid-gGlu), 30S, 31G]mimylin] | ≧200 μM | ≧200 μM | ≧200 μM | ≧200 μM | ≧200 μM | ≧200 μM | ≧200 μM | ≧200 μM |  |  |

Second part, the compound after the results:

| Solubility (pH 3.0) | Solubility (pH 4.0) | Solubility (pH 5.0) | Solubility (pH 6.0) | Solubility (pH 6.5) | Solubility (pH 7.0) | Solubility (pH 7.5) | Solubility (pH 8.0) | solubility at 18 h (pH 5.0) | solubility at 18 h (pH 4.0) | SMILES |
| --- | --- | --- | --- | --- | --- | --- | --- | --- | --- | --- |
| ≧200 μM | ≧200 μM | ≧200 μM | ≧200 μM | ≧200 μM | ≧200 μM | ≧200 μM | ≧200 μM |  |  | CC(C)C[C@H](NC(=O)[C@H](CCC(=O)O)NC(=O)[C@H](Cc1cnc[nH]1)NC(=O)[C@H](CC(C)C)NC(=O)[C@H](CCC(=O)O)NC(=O)[C@H](C)NC(=O)[C@H](CO)NC(=O)[C@H](CC(C)C)NC(=O)[C@H](CCCNC(=N)N)NC(=O)CNC(=O)[C@H](CC(C)C)NC(=O)[C@@H](NC(=O)[C@H](C)NC(=O)[C@@H](NC(=O)[C@H](CO)NC(=O)[C@H](CC(C)C)NC(=O)[C@H](CCC(=O)O)NC(=O)[C@@H]1CCCN1C(=O)[C@H](C)NC(=O)[C@H](CCC(=O)O)NC(=O)CCCCCCCCCCCCCCCCC(=O)O)[C@@H](C)O)C(C)C)C(=O)N[C@@H](C)C(=O)N[C@H](C(=O)N[C@@H](CC(C)C)C(=O)N1CCC[C@H]1C(=O)N[C@@H](CCCNC(=N)N)C(=O)N[C@H](C(=O)N[C@@H](CCC(=O)O)C(=O)N[C@H](C(=O)NCC(=O)N1CCC[C@H]1C(=O)N[C@@H](CCC(=O)O)C(=O)N[C@@H](CO)C(=O)N1CCC[C@H]1C(N)=O)[C@@H](C)O)[C@@H](C)O)[C@@H](C)O [compound 29, [N-terminal(C18 diacid), 3P, 9V]mimylin] ({C18 diacid}-EAPELSTAVLGRLSAELHELATLPRTETGPESP-NH2) |
| ≧200 μM | ≧200 μM | ≧200 μM | ≧200 μM | ≧200 μM | ≧200 μM | ≧200 μM | ≧200 μM |  |  | CC(C)C[C@H](NC(=O)[C@H](C)NC(=O)[C@H](C)NC(=O)[C@@H](NC(=O)[C@H](CO)NC(=O)[C@H](CC(C)C)NC(=O)[C@H](CCC(=O)O)NC(=O)[C@H](CO)NC(=O)[C@H](C)NC(=O)CC[C@H](NC(=O)CCCCCCCCCCCCCCCCC(=O)O)C(=O)O)[C@@H](C)O)C(=O)NCC(=O)N[C@@H](CCCNC(=N)N)C(=O)N[C@@H](CC(C)C)C(=O)N[C@@H](CO)C(=O)N[C@@H](C)C(=O)N[C@@H](CCC(=O)O)C(=O)N[C@@H](CC(C)C)C(=O)N[C@@H](Cc1cnc[nH]1)C(=O)N[C@@H](CCC(=O)O)C(=O)N[C@@H](CC(C)C)C(=O)N[C@@H](C)C(=O)N[C@H](C(=O)N[C@@H](CC(C)C)C(=O)N1CCC[C@H]1C(=O)N[C@@H](CCCNC(=N)N)C(=O)N[C@H](C(=O)N[C@@H](CCC(=O)O)C(=O)N[C@H](C(=O)NCC(=O)N[C@@H](CO)C(=O)NCC(=O)N1CCC[C@H]1C(=O)N1CCC[C@H]1C(N)=O)[C@@H](C)O)[C@@H](C)O)[C@@H](C)O [compound 75, [N-terminal(C18 diacid-gGlu), des1, 30S, 31G, 32P]mimylin] ({C18 diacid-γGlu}-ASELSTAALGRLSAELHELATLPRTETGSGPP-NH2) |
